Values after ≈ are worked out from the molar mass of the structure shown.
What was measured:
Aphidius rhopalosiphi = assay: LR50; higher = less toxic; settings: not reported; mortality
Rattus norvegicus = settings: for NOEC: chronic, M
Oryctolagus sp. = settings: developmental; development
Pimephales promelas = settings: chronic/long-term; duration: 278 days; growth
Apis mellifera = settings: acute; duration: 48 hours; oral; unspecified; mortality
Folsomia candida = settings: chronic/long-term; duration: 28 days
Bibionidae = settings: chronic/long-term; duration: 28 days; seedling emergence
Lepomis macrochirus = settings: acute; duration: 96 hours; mortality
Canidae = settings: chronic; duration: 52 weeks; oral; Dog Other; body weight
Mus musculus = settings: chronic; duration: 2 years; organ weight
Daphnia magna = settings: chronic/long-term; duration: 21 days; growth
Anas platyrhynchos = settings: short-term; oral; feed; mortality

`O=[N+]([O-])c1cc(C(F)(F)F)c(Cl)c([N+](=O)[O-])c1Nc1ncc(C(F)(F)F)cc1Cl` [Fluazinam] was tested, and the LR50 (Aphidius rhopalosiphi) was over 200 g/ha, the LD50 (Rattus norvegicus; acute, F, mortality) was 4100 mg/kg-day and the NOEC (Rattus norvegicus) was 5 mg/kg-day. The NOEC (Rattus norvegicus; mortality) was 100 mg/kg-day, the NOAEL (Oryctolagus sp.) was 7 mg/kg-day and the NOEC (Pimephales promelas) was 0.0029 mg/L. For the same compound, the LD50 (Apis mellifera) was over 100 µg/piece, the NOEC (Folsomia candida) was under 1.57 mg/kg and the NOEC (Bibionidae) was 0.00625 mg/L. For the same compound, the LC50 (Lepomis macrochirus) was 0.055 µg/mL (≈ 0.118 µM), the LC50 (Tagia sp.; acute, duration: 14 days, mortality) was over 1000 mg/kg and the NOEC (Tagia sp.; chronic/long-term, duration: 28 days) was 0.35 mg/kg. For the same compound, the NOAEL (Canidae) was 1 mg/kg-day, the NOAEL (Mus musculus) was 1.12 mg/kg-day and the NOEC (Daphnia magna) was 0.0125 mg/L. It also gave an LD50 (Colinus virginianus; acute, oral, mortality) of 1780 mg/kg-day, an NOEC (Colinus virginianus; reproduction developmental) of 60.4 mg/kg-day and an LC50 (Anas platyrhynchos) of over 1230 mg/kg-day.

Source: EPA's ToxValDB 9.5 (doi:10.2903/j.efsa.2008.137r)
